Results: US20250127896A1, “CHIMERIC TIM4 RECEPTORS AND USES THEREOF” (CERO THERAPEUTICS HOLDINGS, INC., priority 2021, published 2025)

What was measured:
Type in all cases: cell-based
REC-1 cells = assay: Phagocytosis of pHrodo-labeled ibrutinib-treated REC-1 cells by CER T cells
Text: FIG. 13A: Representative flow cytometry histograms showing engulfment of pHrodo red-labeled REC-1 target cells by CER1234, CER1161, and CER1183 T cells. FIG. 13B: Graphical summary of flow cytometry data showing engulfment of pHrodo red-labeled REC-1 target cells by CER1234, CER1161, and CER1183 T cells. * P<0.01, ** P<0.001, *** P<0.0001; mean+SD, n=4. FIG. 13C: Representative fluorescence microscopy images (at 40×) showing engulfment of pHrodo red-labeled REC-1 target cells by CER1234, CER1161, and CER1183 T cells. FIG. 13D: Engulfed pHrodo-green-labeled REC-1 tumor fragments co-localize into Lyso-tracker red-labeled lysosomes.
Phagocytosis was assessed in co-culture assays of REC-1 cells with CER T cells. […] The percentage of pHrodo red-positive cells was determined by flow cytometry after 16 or 40 hours of co-culture. The localization of tumor fragments in CER T-cell lysosomal compartments was assessed in a separate experiment with REC-1 cells labeled with pHrodo green; following co-culture, all cells were labeled with Lyso-tracker red. Visualization of engulfment was performed by fluorescence microscopy. 1-way ANOVA with Dunnett's post hoc test was performed compared with untransduced T cells.

E7 TCR T cells = assay: APC-like function: E7 peptide-pulsed CER T cells co-cultured with E7 TCR T cells (activation markers, CT Violet proliferation)
Method: FIG. 1A: a schematic of pCTX247 (also referred to herein as CER247) and pCTX1107 (also referred to herein as CER1107 or CER1236) chimeric Tim4 receptors and pCTX1107 T cells pulsed with E7 peptides and co-cultured with E7-specific T cells to evaluate their antigen presentation capacity. FIG. 1B: E7-specific proliferation responses were measured by CT Violet dye dilution after 6 days in the presence of autologous CER-T (TLR containing or non-containing CERs) pulsed with E7 peptides. […] All data collected by FACS. Cell tracing show E7 TCR-T cells using an anti-mouse TCRb. E7 TCR-T cells were labeled with CT Violet at the time of co-culture. FIG. 1D: Percentage of proliferated E7 TCR cells in culture among live CD3+ cells determined by flow cytometry based on staining of cell trace violet low E7 TCRb+ cells.
FIG. 2: T cells containing chimeric Tim4 receptors with a TLR intracellular signaling domain added to the CD3ζ signaling domain (and optionally a CD28 signaling domain) are strong stimulators of autologous E7-specific T cell responses. CER-T cells were pulsed with E7 peptide and tested for their capacity to trigger an autologous E7-specific T cell response. CD25, a T cell activation marker, was evaluated on E7 TCR-T cells, 24 hours after CER-T cells were pulsed with E7 peptides. […]

NSCLC H1975 cells = assay: Cytokine production by CER1236 T cells co-cultured with H1975 cells and osimertinib (Ella); conditions: 96 h, E:T 1:4, vs vehicle and untransduced T cells
Method: FIG. 40: Graphs showing cytokine production by CER1236 T cells co-cultured with NSCLC H1975 cells with 100 nM osimertinib or vehicle (left to right: granzyme B, TNFα, IL-6, and IFNγ).
Cytokine production was also measured in CER1236 T cells co-cultured with H1975 NSCLC cells pre-treated with osimertinib or vehicle. Ten-thousand NSCLC H1975 cells were cultured for 24 h with 100 nM Osimertinib or vehicle (DMSO) and then co-cultured with CER T cells for 96 h at an E:T of 1:4 in the presence or absence of 4.88 nM Osimertinib or vehicle. Effector:Target ratio was 1:4, and H1975 cells were plated at 10,000 cells/well. Cytokine production was determined by Ella assay.

Q: With “CER-1234: chimeric Tim4 receptor: Tim4 binding domain-CD28tm-CD28-TLR2 TIR-CD3z, SEQ ID NO:18; tested as transduced T cells” as the substance, how does the “localization of internalized fragments” value (REC-1 cells; BTK inhibitor-primed REC-1 cells) read?
A: internalized fragments were localized to lysosomal compartments

Q: What about the “engulfment of pHrodo red+ target cells” value (REC-1 cells; REC-1 pretreated 10 μM ibrutinib, 16 and 40 hours of co-culture) of the same substance?
A: increased engulfment of pHrodo red+target cells relative to untransduced T cells

Q: How did the “E7 TCR-T cell surface activation markers CD25 and CD69 upregulated” value (E7 TCR T cells; 24 hrs following co-culture, controls 23.1%) turn out when “CER-1236: chimeric Tim4 receptor: Tim4 binding domain-CD28tm-CD28-CD3z-TLR2 TIR, SEQ ID NO:19; tested as transduced T cells” was run?
A: 41.2%

Q: And the “percentage of dividing E7-TCR-T cells” value (E7 TCR T cells; by 6 days, controls 8%)?
A: 44%

Q: And the “cytokine production (granzyme B, TNFα, IL-6, IFNγ), combination with osimertinib” value (NSCLC H1975 cells)?
A: increased cytokine production
